In this assay the target is T1, glucocorticoid receptor (GR) (Homo sapiens, UniProt P04150).
T1 construct: made in house; host or cells: Sf9 cells infected with recombinant baculovirus (cytosol preparation)
T1 sequence (P04150 1-777): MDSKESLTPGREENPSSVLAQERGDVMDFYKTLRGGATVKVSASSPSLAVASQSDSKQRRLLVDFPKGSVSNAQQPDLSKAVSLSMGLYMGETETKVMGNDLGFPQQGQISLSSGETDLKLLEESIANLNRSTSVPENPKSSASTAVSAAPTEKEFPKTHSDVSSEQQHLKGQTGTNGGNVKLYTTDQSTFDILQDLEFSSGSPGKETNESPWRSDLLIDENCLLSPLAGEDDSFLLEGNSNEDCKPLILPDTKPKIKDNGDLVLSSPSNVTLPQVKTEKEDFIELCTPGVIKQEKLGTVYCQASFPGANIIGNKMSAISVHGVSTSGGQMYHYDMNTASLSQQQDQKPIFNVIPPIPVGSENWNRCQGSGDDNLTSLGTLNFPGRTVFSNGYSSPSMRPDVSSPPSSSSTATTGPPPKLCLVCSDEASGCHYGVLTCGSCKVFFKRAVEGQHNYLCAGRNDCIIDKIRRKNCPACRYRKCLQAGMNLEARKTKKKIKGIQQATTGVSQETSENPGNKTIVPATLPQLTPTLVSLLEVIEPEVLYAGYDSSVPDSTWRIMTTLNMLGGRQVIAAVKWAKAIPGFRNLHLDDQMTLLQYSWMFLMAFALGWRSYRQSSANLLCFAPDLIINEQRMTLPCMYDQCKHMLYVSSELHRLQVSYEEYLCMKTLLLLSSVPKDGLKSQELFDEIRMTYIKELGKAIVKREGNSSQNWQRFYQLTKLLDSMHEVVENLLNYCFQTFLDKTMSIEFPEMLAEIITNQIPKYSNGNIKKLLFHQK
Nature of the assay: Binding to recombinantly produced glucocorticoid receptor, cytosol preparations of Sf9 cells, vs [3H]-dexamethasone. The note with it: recombinant GR. The source says:
The binding of the substances to the glucocorticoid receptor (GR) and other steroid hormone receptors (mineral corticoid receptor (MR), progesterone receptor (PR) and androgen receptor (AR)) is examined with the aid of recombinantly produced receptors. Cytosol preparations of Sf9 cells, which had been infected with recombinant baculoviruses, which code for the GR, are used for the binding studies. In comparison to reference substance [^3H]-dexamethasone, the substances show a high to very high affinity to GR.
Moreover, the compounds of formula (I) substituted by quinazolines, quinoxalines, cinnolines, indazoles, phthalazines, naphthyridines, benzothiazoles, dihydroindolones, dihydroisoindolones, benzimidazoles and indoles that are described here show a high selectivity for the glucocorticoid receptor.

A word on the IC50: it is the midpoint of a concentration-inhibition curve.

As for `COc1ccc(F)cc1C(C)(C)CC(O)(CNc1cccc2nc(C)ncc12)C(F)(F)F` (centres unmarked) [Example 2, 4-(5-Fluoro-2-methoxyphenyl)-4-methyl-1-(2-methylquinazolin-5-ylamino)-2-(trifluoromethyl)-pentan-2-ol], the IC50 was 1.8 nM.
For `COc1cc(Cl)ccc1C(C)(C)CC(O)(CNc1ccnc2nc(C)ccc12)C(F)(F)F` (centres unmarked) [Example 52, 4-(4-Chloro-2-methoxyphenyl)-4-methyl-1-(2-methyl-1,8-naphthyridin-5-ylamino)-2-(trifluoromethyl)pentan-2-ol], the IC50 was found to be 10 nM.

The values are drawn from patent publication US20050090559A1, “Heterocyclically-substituted pentanol derivatives, process for their production and their use as anti-inflammatory agents” (priority 2003, published 2005).
